Read-outs that look alike come from different tables or passages of the source. Marks after values point to notes of the source that are not given here. Positions of bridges follow the written chain, without caps; N, C: chain ends. Non-standard residues stand in square brackets, D forms with d. Residues, ends and D or L forms follow the SMILES beside them. *: point of attachment. Benzoyl(2-OMe,5-SO2F) = COc1ccc(S(=O)(=O)F)cc1C(=O)*; Ala(1H-tetrazol-5-yl) = N[C@@H](Cc1nnn[nH]1)C(=O)O; S5 = C=CCCC[C@](C)(N)C(=O)O; Dap = NC[C@H](N)C(=O)O
How the values were obtained:
[1] = test system: A549 NucLight Red cells; experiment: Lytic effect on A549 NucLight Red cells (IncuCyte S3); assay type: cell-based, human; conditions: for lytic effect on A549 NucLight Red cells: 100 μM, images 20 min after exposure; for lytic effect on A549 cells: high concentrations, nearly immediate cell bursting after exposure, fluorescence microscopy
Source text: Amphipathic alpha-helical peptides have been reported to cause nonspecific membrane disruption events due to their constrained helical structure and amino acid composition.[2],[5],[37],[38] Lytic peptides in fact are highly efficient at binding and disrupting the negatively charged membrane of cells, as they are usually amphipathic and positively charged.[2],[5],[37],[38] Key determinants for cell permeability and the lytic effect are the combination of relatively high hydrophobic content and the number of positively charged residues in addition to the position of the staple within the alpha-helical peptide. Therefore, our design strategy included peptides with varying net charges and explored different positions of the staple within the peptide (Tables 1 and 2; Figure 2). To assess cellular permeability and to detect eventual nonspecific cell lytic effects, we tested selected stapled covalent peptides against the human nonsmall cell lung cancer (NSCLC) cell line A549 (Figure 7). To enhance live cell analysis, we used a cell line that was fluorescently labeled (A549 NucLight Red cells, Essen Bioscience), and cells were monitored for cell lysis via fluorescence microscopy using the IncuCyte S3 live-cell analysis system (Figure 7). […] Considering those data, together with the affinity for hMcl-1(172–323), alpha-helical content (Table 2), and covalent complex formation as detected by SDS gel electrophoresis, mass spectrometry, NMR, and X-ray crystallography, we selected agent 155H1, which was further tested in preliminary cell permeability and cellular efficacy studies.
Figure 7 Lytic effect of stapled peptides on the NSCLC A549 NucLight Red cells detected via the IncuCyte S3 live-cell analysis system. The schematic illustrations depict the lytic (panel A) and nonlytic (panel B) effects of stapled agents on the cells. Representative images of cells collected 20 min after exposure to 100 μM lytic stapled compound 1 (panel A) or nonlytic stapled peptide 155H1 (panel B), along with untreated (DMSO only) cells as a control. Note: Images were taken 20 min after plates were placed inside the IncuCyte S3 to minimize condensation that can affect image quality. The scale bar denotes 100 μm.
Nonsmall cell lung cancer (NSCLC) A549 NucLight Red cells were purchased from Essen Bioscience and cultured in Ham’s F-12 nutrient mixture with GlutaMAX-1 (Gibco) supplemented with 10% FBS and 0.5 μg/mL puromycin. Cells were maintained in a humidified incubator at 37 °C in 5% CO2. These cells have nuclei-fluorescently labeled red. Anti-hMcl-1 and anti-β-tubulin antibodies were purchased from Cell Signaling Technology (#5453) and Santa Cruz Biotechnology (sc-58884), respectively. HRP-conjugated goat antimouse and antirabbit secondary antibodies were purchased from ThermoFisher Scientific.

[2] = molecular target: T1, hMcl-1(172–323) (Homo sapiens, UniProt Q07820); experiment: DELFIA displacement of biotinylated-BH3 peptide from hMcl-1(172–323); assay type: binding
T1 construct: made in house; host or cells: E. coli BL21 (DE3) gold pLysS
Experimental: At the end of a 2 h incubation, plates were washed 3 times. Subsequently, a solution of 6His-tagged-hMcl-1(172–323) or 6His-tagged-hBfl-1(1–149) protein and the test peptides were preincubated for 2 h and added to the washed streptavidin-coated plates along with a Eu–N1-labeled anti-6xHis antibody (PerkinElmer, 1:2000) solution and further incubated for 2 h on a microplate shaker. Plates were then washed 3 times, and each well was incubated with 200 μL of the enhancement solution (PerkinElmer) for 10 min. Fluorescent readings (VICTOR X5 microplate reader) were then measured by using the excitation and emission wavelengths of 340 and 615 nm, respectively. Fluorescent counts were normalized to those of DMSO wells and reported as % inhibition, and Prism 10 (GraphPad) was used to calculate the IC50 values. Protein, peptide, and antibody solutions were prepared in a DELFIA assay buffer (PerkinElmer), and all of the incubations were performed at room temperature. Each well received a final DMSO concentration of 1%. The final concentrations of 6His-tagged-hMcl-1(172–323) and 6His-tagged-hBfl-1(1–149) used were 16 and 15 nM, respectively.

[3] = Aqueous solubility (observation); assay type: physicochemical; conditions: observed during CD measurements
Source text: (§1) Furthermore, to verify that the peptides preferentially assumed a stabilized alpha-helical conformation in the stapled version compared to the linear peptide, we performed CD measurements. Typical curves for the linear peptide (138E12, blue) and a stapled peptide (155H1, red) are reported in Figure 3, while CD data for all other peptides are reported as the Supporting Information (Supporting Figures S3–S14). Using these measurements and the software BeStSel (https://bestsel.elte.hu),[34] we could calculate the percentage of alpha-helical content for each peptide (Table 2). Most stapled peptides, perhaps except compound 4 and compound 7, assumed nearly complete alpha-helical conformation in aqueous buffer (Table 2 and Supporting Figures S3–S14).

[4] = Circular dichroism, percentage of alpha-helix (BeStSel); assay type: physicochemical; conditions: 25 °C
Source text: as §1
Circular dichroism spectra were acquired on a Jasco 815 spectropolarimeter. Samples were prepared in MQ Water or in 15 mM phosphate buffer, pH 7.5. The experiments were conducted at 25 °C, using a 1 mm-path length quartz cell to record data from 190 to 260 nm in 1 nm increments. The response time was 2 s. The data were then converted to Δε(M^–1·cm^–1), and the percentage of alpha-helix was calculated using BeStSel (https://bestsel.elte.hu) software.[34]

[5] = DELFIA displacement assay, n = 2, 16 nM 6His-hMcl-1(172–323), protein and peptide preincubated 2 h, room temperature, 1% DMSO, read-out: IC50 (nM) hMcl-1(172–323)

T1 sequence (Q07820 172-323): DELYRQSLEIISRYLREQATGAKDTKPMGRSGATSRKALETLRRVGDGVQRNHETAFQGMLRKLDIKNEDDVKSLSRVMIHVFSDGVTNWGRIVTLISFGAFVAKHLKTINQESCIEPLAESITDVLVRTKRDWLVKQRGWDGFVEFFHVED

Molecule: CC[C@H](C)[C@H](NC(=O)[C@H](CNC(=O)c1cc(S(=O)(=O)F)ccc1OC)NC(C)=O)C(=O)N[C@@H](C)C(=O)N[C@@H](CCC(=O)O)C(=O)N[C@@H](CCC(N)=O)C(=O)N[C@@H](CC(C)C)C(=O)N[C@@H](CCCNC(=N)N)C(=O)N[C@@]1(C)CCC/C=C\CCC[C@@](C)(C(=O)N[C@@H](Cc2ccccc2)C(N)=O)NC(=O)[C@H](CC(=O)O)NC(=O)CNC(=O)[C@H]([C@@H](C)CC)NC1=O [11 (155H1)] (Ac-[Dap](Benzoyl(2-OMe,5-SO2F))IAEQLR[S5]IGD[S5]F-NH2; staple (Z) 8-12)
- lytic effect on A549 NucLight Red cells [1]: nonlytic

Molecule: CC[C@H](C)[C@H](NC(=O)[C@H](CCCNC(=N)N)NC(=O)[C@H](CCCNC(=N)N)NC(=O)[C@H](CC(C)C)NC(=O)[C@H](CCC(N)=O)NC(=O)[C@]1(C)CCC/C=C/CCC[C@](C)(NC(C)=O)C(=O)N[C@@H](CNC(=O)c2cc(S(=O)(=O)F)ccc2OC)C(=O)N[C@@H]([C@@H](C)CC)C(=O)N[C@@H](C)C(=O)N1)C(=O)NCC(=O)N[C@@H](CC(=O)O)C(=O)N[C@@H](CCCNC(=N)N)C(=O)N[C@@H](Cc1ccccc1)C(N)=O [compound 1] (Ac-[S5][Dap](Benzoyl(2-OMe,5-SO2F))IA[S5]QLRRIGDRF-NH2; staple (E) 1-5)
- lytic effect on A549 NucLight Red cells [1]: lytic
- lytic effect on A549 cells [1]: lytic effect was observed

Molecule: CC[C@H](C)[C@H](NC(=O)[C@H](CCCNC(=N)N)NC(=O)[C@H](CCCNC(=N)N)NC(=O)[C@H](CC(C)C)NC(=O)[C@H](CCC(N)=O)NC(=O)[C@]1(C)CCC/C=C/CCC[C@](C)(NC(C)=O)C(=O)N[C@@H](CNC(=O)c2cc(S(=O)(=O)F)ccc2OC)C(=O)N[C@@H]([C@@H](C)CC)C(=O)N[C@@H](C)C(=O)N1)C(=O)NCC(=O)N[C@@H](Cc1nn[nH]n1)C(=O)N[C@@H](CCCNC(=N)N)C(=O)N[C@@H](Cc1ccccc1)C(N)=O [compound 2] (Ac-[S5][Dap](Benzoyl(2-OMe,5-SO2F))IA[S5]QLRRIG[Ala(1H-tetrazol-5-yl)]RF-NH2; staple (E) 1-5)
- IC50 [2]: 633 ± 30 nM
- lytic effect on A549 cells [1]: lytic effect was observed

Molecule: CC[C@H](C)[C@H](NC(=O)[C@H](C)NC(=O)[C@H](CCCNC(=N)N)NC(=O)[C@H](CC(C)C)NC(=O)[C@H](CCC(N)=O)NC(=O)[C@]1(C)CCC/C=C/CCC[C@](C)(NC(C)=O)C(=O)N[C@@H](CNC(=O)c2cc(S(=O)(=O)F)ccc2OC)C(=O)N[C@@H]([C@@H](C)CC)C(=O)N[C@@H](C)C(=O)N1)C(=O)NCC(=O)N[C@@H](CC(=O)O)C(=O)N[C@@H](C)C(=O)N[C@@H](Cc1ccccc1)C(N)=O [compound 4] (Ac-[S5][Dap](Benzoyl(2-OMe,5-SO2F))IA[S5]QLRAIGDAF-NH2; staple (E) 1-5)
- aqueous solubility [3]: limited aqueous solubility

Molecule: CC[C@H](C)[C@H](NC(=O)[C@H](CNC(=O)c1cc(S(=O)(=O)F)ccc1OC)NC(C)=O)C(=O)N[C@@H](C)C(=O)N[C@@]1(C)CCC/C=C\CCC[C@@](C)(C(=O)N[C@H](C(=O)NCC(=O)N[C@@H](CC(=O)O)C(=O)N[C@@H](C)C(=O)N[C@@H](Cc2ccccc2)C(N)=O)[C@@H](C)CC)NC(=O)[C@H](CCCNC(=N)N)NC(=O)[C@H](CC(C)C)NC(=O)[C@H](CCC(N)=O)NC1=O [compound 7] (Ac-[Dap](Benzoyl(2-OMe,5-SO2F))IA[S5]QLR[S5]IGDAF-NH2; staple (Z) 4-8)
- aqueous solubility [3]: limited aqueous solubility

Molecule: Ac-Dap(2MeO,5FSB)IAEQLRRIGDRF-CONH2 (Ac-[Dap](2‑methoxy‑5‑fluorosulfonylbenzoyl)IAEQLRRIGDRF-NH2) [138E12, previously reported linear Lys 234-covalent BH3 peptide with aryl-sulfonyl fluoride, reference compound]
- IC50 [2, 5]: 18 ± 4 nM

Molecule: Ac-Dap(2MeO,5FSB)IAEQLRRIGDRF-CONH2 [138E12, previously reported linear Lys 234-covalent BH3 peptide with aryl-sulfonyl fluoride, reference compound]
- % alpha-helix ([4]; CD spectra measured both in water and in 15 mM phosphate buffer pH 7.5, BeStSel): 48.3 ^b %

Molecule: Ac-Dap(2MeO,5FSB)IXEQLXRIGDRF-CONH2 (sidechain bridge or staple) ({Ac-Dap(2MeO,5FSB)}-I[S5]EQL[S5]RIGDRF-NH2; staple 2-6) [compound 10, stapled covalent BH3 peptide, staple at positions 4 and 8]
- IC50 [2, 5]: 174 ± 1 nM
- % alpha-helix ([4]; CD, 190–260 nm, MQ water or 15 mM phosphate buffer pH 7.5, calculated using BeStSel): 100%

Source: PMC11129181, “Histidine-Covalent Stapled Alpha-Helical Peptides Targeting hMcl-1” (Journal of Medicinal Chemistry, 2024)
